Results as given in US9642831B2, “Substituted chromanes and method of use” (AbbVie S.á.r.l., priority 2014, dated 2017).

Biological target: F508delCFTR (Homo sapiens, UniProt P13569, DEL508-508)
Test: Cell Surface Expression-Horse Radish Peroxidase (CSE-HRP) assay
Assay type: cell-based
Parameters: expressed in transfected cells; host or cells: CFBE41o- human lung derived epithelial cell line, doxycycline-inducible
Settings: CFBE4lo-F508delCFTR-HRP cells; for EC50: 18-24 hours at 33° C., 8-point curve, highest concentration 20 μM, luminescence readout; for Emax: maximum % activity at any tested concentration, normalized to on-plate positive control (3 μM Example 1)
Description: Cell Surface Expression-Horse Radish Peroxidase (CSE-HRP) Assay:
A cellular assay for measuring the F508delCFTR cell surface expression after correction with test compounds was developed in human lung derived epithelial cell line (CFBE4lo-) (Veit G et al, (2012) Mol Biol Cell. 23(21): 4188-4202). This was achieved by expressing the F508delCFTR mutation along with a horseradish peroxidase (HRP) in the fourth exofacial loop and then measuring the HRP activity using luminescence readout from these cells, CFBE4lo-F508delCFTR-HRP, that were incubated overnight with the test corrector compounds. Briefly, for this primary assay, the CFBE4lo-F508delCFTR-HRP cells were plated in 384-well plates (Greiner Bio-one; Cat 781080) at 4,000 cells/well along with 0.5 μg/mL doxycycline to induce the F508delCFTR-HRP expression and further incubated at 37° C., 5% CO2 for 72 hours. The test compounds were then added at the required concentrations and further incubated for 18-24 hours at 33° C. The highest concentration tested was 20 μM with an 8-point concentration response curve using a 3-fold dilution. Three replicate plates were run to determine one EC50. All plates contained negative controls (dimethyl sulfoxide, DMSO) and positive controls (3 μM of 3-[(2R,4R)-4-({[1-(2,2-difluoro-1,3-benzodioxol-5-yl)cyclopropyl]carbonyl}amino)-7-methoxy-3,4-dihydro-2H-chromen-2-yl]benzoic acid) as well as on-plate concentration response of the positive control. Post incubation, the plates were washed 5× times with Dulbecco's phosphate buffered saline (DPBS), followed by the addition of the HRP substrate, luminol (50 μL), and measuring the HRP activity using luminescence readout on EnVision® Multilabel Plate Reader (Perkin Elmer; product number 2104-0010). The raw counts from the experiment are analyzed using Accelrys® Assay Explorer v3.3.
Z′ greater than 0.5 was used as passing quality control criteria for the plates.
The Z′ is defined as: 1−[3*SDPositive Control+3*SDNegative Control/Absolute(MeanPositive Control−MeanNegative Control)] wherein “SD” is standard deviation.
The % activity measured at each of the 8 test concentrations of the test compound was normalized to the on-plate positive control using the following formula: % activity=[(test compound response−DMSO response)/(positive control response−DMSO response)]*100
The maximum % activity achieved for the test compound at any tested concentration is presented in Table 1 along with the EC50 calculated using the following general sigmoidal curve with variable Hill slope equation (described as Model 42 in the Accelrys® Assay Explorer v3.3 software): y=(a−d)/(1+(x/c)^b)+d
General sigmoidal curve with concentration, response, top, bottom, EC50 and Hill slope.
This model describes a sigmoidal curve with an adjustable baseline, a. The equation can be used to fit curves where response is either increasing or decreasing with respect to the independent variable, “x”.
“x” is a concentration of drug under test.
“a” is the maximum response, and “d” is the minimum response
“c” is the inflection point (EC50) for the curve. That is, “y” is halfway between the lower and upper asymptotes when x=c.
“b” is the slope-factor or Hill coefficient. The sign of b is positive when the response increases with increasing dose and is negative when the response decreases with increasing dose (inhibition).

Sequence of F508delCFTR (P13569 with tags, fused parts or gaps DEL508-508): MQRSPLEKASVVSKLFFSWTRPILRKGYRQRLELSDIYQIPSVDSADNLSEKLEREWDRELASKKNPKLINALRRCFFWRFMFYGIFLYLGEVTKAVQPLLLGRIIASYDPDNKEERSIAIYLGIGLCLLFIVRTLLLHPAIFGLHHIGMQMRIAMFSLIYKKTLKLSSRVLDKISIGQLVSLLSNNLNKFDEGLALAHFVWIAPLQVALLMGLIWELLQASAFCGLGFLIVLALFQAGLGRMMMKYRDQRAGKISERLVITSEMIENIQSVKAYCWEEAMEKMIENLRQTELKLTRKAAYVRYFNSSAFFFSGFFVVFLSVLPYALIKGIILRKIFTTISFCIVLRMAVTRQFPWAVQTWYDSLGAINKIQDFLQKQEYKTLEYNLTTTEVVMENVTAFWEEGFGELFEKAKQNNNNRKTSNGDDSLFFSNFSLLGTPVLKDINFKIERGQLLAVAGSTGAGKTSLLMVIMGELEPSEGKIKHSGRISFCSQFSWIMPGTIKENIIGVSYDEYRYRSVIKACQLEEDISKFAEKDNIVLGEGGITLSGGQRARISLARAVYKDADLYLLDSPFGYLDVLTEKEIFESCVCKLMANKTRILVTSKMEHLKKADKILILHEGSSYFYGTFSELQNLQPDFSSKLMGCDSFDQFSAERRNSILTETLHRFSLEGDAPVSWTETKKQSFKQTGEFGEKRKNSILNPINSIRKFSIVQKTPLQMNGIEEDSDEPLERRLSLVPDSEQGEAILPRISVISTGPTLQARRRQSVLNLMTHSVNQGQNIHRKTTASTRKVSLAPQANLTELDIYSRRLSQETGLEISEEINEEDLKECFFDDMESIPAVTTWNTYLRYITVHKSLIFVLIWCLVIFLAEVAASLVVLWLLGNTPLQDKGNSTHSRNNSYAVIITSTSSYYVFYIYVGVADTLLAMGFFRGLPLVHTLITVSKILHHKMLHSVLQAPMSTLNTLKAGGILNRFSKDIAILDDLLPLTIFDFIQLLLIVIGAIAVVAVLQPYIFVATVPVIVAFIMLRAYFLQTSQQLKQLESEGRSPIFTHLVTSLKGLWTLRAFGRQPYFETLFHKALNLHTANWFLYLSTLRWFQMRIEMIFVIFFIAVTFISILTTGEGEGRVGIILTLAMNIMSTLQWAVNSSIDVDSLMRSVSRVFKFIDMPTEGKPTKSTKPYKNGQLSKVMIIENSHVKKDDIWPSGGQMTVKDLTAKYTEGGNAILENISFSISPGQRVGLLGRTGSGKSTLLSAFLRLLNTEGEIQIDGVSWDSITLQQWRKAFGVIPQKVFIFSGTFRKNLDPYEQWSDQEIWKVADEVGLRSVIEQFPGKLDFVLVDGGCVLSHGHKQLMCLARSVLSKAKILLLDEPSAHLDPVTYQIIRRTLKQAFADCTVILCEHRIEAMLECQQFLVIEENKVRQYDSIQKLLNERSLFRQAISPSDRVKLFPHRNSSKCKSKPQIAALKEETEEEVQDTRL

Row | Structure (SMILES) | EC50 [nM] | Emax [%]
1 | Cc1ccc2c(c1)O[C@@H](c1cccc(C(=O)N3CC[C@@H](O)C3)c1)C[C@H]2NC(=O)C1(c2ccc3c(c2)OC(F)(F)O3)CC1 [Example 49, 1-(2,2-difluoro-1,3-benzodioxol-5-yl)-N-[(2R,4R)-2-(3-{[(3R)-3-hydroxypyrrolidin-1-yl]carbonyl}phenyl)-7-methyl-3,4-dihydro-2H-chromen-4-yl]cyclopropanecarboxamide] | 970 | 105
2 | O=C(NC1CC2(CCN(C[C@@H](O)CO)CC2)Oc2cc(F)ccc21)C1(c2ccc3c(c2)OC(F)(F)O3)CC1 (stereo partly drawn) [Example 99, 1-(2,2-difluoro-1,3-benzodioxol-5-yl)-N-{1′-[(2R)-2,3-dihydroxypropyl]-7-fluoro-3,4-dihydrospiro[chromene-2,4′-piperidin]-4-yl}cyclopropanecarboxamide] | 3890 | 56
3 | Cc1ccc2c(c1)O[C@@H](c1cccc(C(=O)NCC(O)C(F)(F)F)c1)C[C@H]2NC(=O)C1(c2ccc3c(c2)OC(F)(F)O3)CC1 (stereo partly drawn) [Example 50, 3-[(2R,4R)-4-({[1-(2,2-difluoro-1,3-benzodioxol-5-yl)cyclopropyl]carbonyl}amino)-7-methyl-3,4-dihydro-2H-chromen-2-yl]-N-(3,3,3-trifluoro-2-hydroxypropyl)benzamide] | 860 | 101
4 | O=C(NC1CC2(CNC2)Oc2cc(F)ccc21)C1(c2ccc3c(c2)OC(F)(F)O3)CC1 (centres unmarked) [Example 103, 1-(2,2-difluoro-1,3-benzodioxol-5-yl)-N-(7′-fluoro-3′,4′-dihydrospiro[azetidine-3,2′-chromen]-4′-yl)cyclopropanecarboxamide] | 8530 | 28
5 | O=C(NC1c2ccccc2OCC1Cc1ccccc1)C1(c2ccc3c(c2)OC(F)(F)O3)CC1 (centres unmarked) [Example 73, N-(3-benzyl-3,4-dihydro-2H-chromen-4-yl)-1-(2,2-difluoro-1,3-benzodioxol-5-yl)cyclopropanecarboxamide] | 7630 | 57
6 | COc1ccc2c(c1)OC(C1CNC1)CC2NC(=O)C1(c2ccc3c(c2)OC(F)(F)O3)CC1 (centres unmarked) [Example 116, N-[2-(azetidin-3-yl)-7-methoxy-3,4-dihydro-2H-chromen-4-yl]-1-(2,2-difluoro-1,3-benzodioxol-5-yl)cyclopropanecarboxamide] | 7640 | 59
7 | COc1ccc(C2CC(NC(=O)C3(c4ccc5c(c4)OC(F)(F)O5)CC3)c3ccccc3O2)cc1OC (centres unmarked) [Example 69, 1-(2,2-difluoro-1,3-benzodioxol-5-yl)-N-[2-(3,4-dimethoxyphenyl)-3,4-dihydro-2H-chromen-4-yl]cyclopropanecarboxamide] | 2120 | 109
8 | COCCOc1ccc2c(c1)O[C@@H](c1cccc(C(=O)O)c1)C[C@H]2NC(=O)C1(c2ccc3c(c2)OC(F)(F)O3)CC1 [Example 97, 3-[(2R,4R)-4-({[1-(2,2-difluoro-1,3-benzodioxol-5-yl)cyclopropyl]carbonyl}amino)-7-(2-methoxyethoxy)-3,4-dihydro-2H-chromen-2-yl]benzoic acid] | 380 | 90
9 | COC(=O)c1cccc([C@H]2C[C@@H](NC(=O)C3(c4ccc5c(c4)OC(F)(F)O5)CC3)c3cccnc3O2)c1 (racemic) [Example 33, rac-methyl 3-[(2R,4R)-4-({[1-(2,2-difluoro-1,3-benzodioxol-5-yl)cyclopropyl]carbonyl}amino)-3,4-dihydro-2H-pyrano[2,3-b]pyridin-2-yl]benzoate] | 7650 | 38
10 | O=C(NC1C[C@H](c2cccc(CO)c2)Oc2ccccc21)C1(c2ccc3c(c2)OC(F)(F)O3)CC1 (stereo partly drawn) [Example 58, 1-(2,2-difluoro-1,3-benzodioxol-5-yl)-N-{(2R)-2-[3-(hydroxymethyl)phenyl]-3,4-dihydro-2H-chromen-4-yl}cyclopropanecarboxamide] | 2540 | 101
11 | O=C(NC1CC(c2ccc(C(F)(F)F)cc2)Oc2ccccc21)C1(c2ccc3c(c2)OC(F)(F)O3)CC1 (centres unmarked) [Example 64, 1-(2,2-difluoro-1,3-benzodioxol-5-yl)-N-{2-[4-(trifluoromethyl)phenyl]-3,4-dihydro-2H-chromen-4-yl}cyclopropanecarboxamide] | 1610 | 78
12 | Cc1ccc2c(c1)O[C@@H](c1cccc(C(=O)NCC(C)(C)O)c1)C[C@H]2NC(=O)C1(c2ccc3c(c2)OC(F)(F)O3)CC1 [Example 51, 3-[(2R,4R)-4-({[1-(2,2-difluoro-1,3-benzodioxol-5-yl)cyclopropyl]carbonyl}amino)-7-methyl-3,4-dihydro-2H-chromen-2-yl]-N-(2-hydroxy-2-methylpropyl)benzamide] | 970 | 83

Next, values leading:

Row | EC50 [nM] | Emax [%] | Structure (SMILES)
13 | 6760 | 26 | CC1(C)CC(NC(=O)C2(c3ccc4c(c3)OC(F)(F)O4)CC2)c2ccc(O)cc2O1 (centres unmarked) [Example 124, 1-(2,2-difluoro-1,3-benzodioxol-5-yl)-N-(7-hydroxy-2,2-dimethyl-3,4-dihydro-2H-chromen-4-yl)cyclopropanecarboxamide]
14 | 7920 | 35 | COc1ccc2c(c1)O[C@@H](C(=O)N1CCC(C(=O)O)C1)C[C@@H]2NC(=O)C1(c2ccc3c(c2)OC(F)(F)O3)CC1 (mixture of isomers) [Example 201, rac-1-{[(2R,4S)-4-({[1-(2,2-difluoro-1,3-benzodioxol-5-yl)cyclopropyl]carbonyl}amino)-7-methoxy-3,4-dihydro-2H-chromen-2-yl]carbonyl}pyrrolidine-3-carboxylic acid]
15 | 5930 | 59 | COc1ccc2c(c1)O[C@@H](C(=O)NC(CO)CO)C[C@H]2NC(=O)C1(c2ccc3c(c2)OC(F)(F)O3)CC1 (racemic) [Example 180, rac-(2R,4R)-4-({[1-(2,2-difluoro-1,3-benzodioxol-5-yl)cyclopropyl]carbonyl}amino)-N-(1,3-dihydroxypropan-2-yl)-7-methoxy-3,4-dihydro-2H-chromene-2-carboxamide]
16 | 3050 | 54 | CCOC(=O)c1csc([C@H]2C[C@H](NC(=O)C3(c4ccc5c(c4)OC(F)(F)O5)CC3)c3ccccc3O2)n1 (relative stereo) [Example 141, ethyl rel-2-[(2R,4S)-4-({[1-(2,2-difluoro-1,3-benzodioxol-5-yl)cyclopropyl]carbonyl}amino)-3,4-dihydro-2H-chromen-2-yl]-1,3-thiazole-4-carboxylate]
17 | 2140 | 115 | CC1(C)CC(NC(=O)C2(c3ccc4c(c3)OC(F)(F)O4)CC2)c2ccc(OC(F)F)cc2O1 (centres unmarked) [Example 125, 1-(2,2-difluoro-1,3-benzodioxol-5-yl)-N-[7-(difluoromethoxy)-2,2-dimethyl-3,4-dihydro-2H-chromen-4-yl]cyclopropanecarboxamide]
18 | 2350 | 61 | COc1ccc2c(c1)O[C@@H](C(=O)NC1c3ccccc3CC1O)C[C@@H]2NC(=O)C1(c2ccc3c(c2)OC(F)(F)O3)CC1 (mixture of isomers) [Example 200, rac-(2R,4S)-4-({[1-(2,2-difluoro-1,3-benzodioxol-5-yl)cyclopropyl]carbonyl}amino)-N-(2-hydroxy-2,3-dihydro-1H-inden-1-yl)-7-methoxy-3,4-dihydro-2H-chromene-2-carboxamide]
19 | 860 | 67 | CCCN(CCO)C(=O)[C@H]1C[C@H](NC(=O)C2(c3ccc4c(c3)OC(F)(F)O4)CC2)c2ccc(OC)cc2O1 (racemic) [Example 183, rac-(2R,4S)-4-({[1-(2,2-difluoro-1,3-benzodioxol-5-yl)cyclopropyl]carbonyl}amino)-N-(2-hydroxyethyl)-7-methoxy-N-propyl-3,4-dihydro-2H-chromene-2-carboxamide]
